The source of these data is patent publication US20030109418A1, “Methods for identifying compounds for inhibition of neoplastic lesions, and pharmaceutical compositions containing such compounds” (priority 1999, published 2003).

Structures can show the parent of a compound that is named as a salt.

The test system of one assay is PC-3. In words: Growth inhibition, neutral red assay, PC-3. It counts as cell-based, human. Conditions: free base, five days. How it is done:
(§1) Compound I's activity is not confined to activity against colon cancer cell lines or animal models of colon cancer. It has a broad range of anti-neoplastic effects in various neoplastic cell lines. Various types of human cancer cell lines were propagated under sterile conditions in RPMI 1640 medium with 10% fetal bovine serum, 2 mM L-glutamine and sodium bicarbonate. To determine growth inhibitory effects of Compound I, cells were seeded in 96-well plates at a density of 1000 cells per well. Twenty-four hours after plating, the cells were dosed with various concentrations of the free base of Compound I solubilized in DMSO (final concentration 0.1%). The effect of the drug on tumor cell growth was determined using the neutral red cytotoxicity assay following five days of continuous treatment. Neutral red is a dye that is selectively taken up by viable cells by an ATP-dependent transport mechanism.

The next assay concerns HCT-15. In words: Growth inhibition, neutral red assay, HCT-15. It counts as cell-based, human. Conditions: free base, five days. How it is done: as §1
In the next assay the test system is SW-480 cell line. Briefly: Growth inhibition in SW-480. It counts as cell-based. Conditions: Homo sapiens, SW480. How it is done: The growth inhibition IC50 value obtained for Compound I was 0.7 μM in the SW-480 cell line. […] This established rodent model of azoxymethane (“AOM”)-induced carcinogenesis was used to assess the effects of Compound I (free base and salt) on colon cancer development in vivo. ACF are precursors to colonic tumors, and ACF inhibition is predictive of chemo-preventive efficacy.

The next assay relates to PANC-1. In words: Growth inhibition, neutral red assay, PANC-1. The class given is cell-based. As to conditions: Homo sapiens, HCl salt. How it is done:
as §1

The next assay has as its system NCI-H82. In words: Growth inhibition, neutral red assay, NCI-H82. It counts as cell-based, human. Conditions: free base, five days. How it is done:
as §1

In another assay the test system is HT-29. In words: Growth inhibition, neutral red assay, HT-29. It counts as cell-based, human. As to conditions: free base, five days. How it is done:
as §1

Another assay deals with NCI-H460. In words: Growth inhibition, neutral red assay, NCI-H460. It counts as cell-based, human. Conditions: free base, five days. How it is done:
as §1

Assay [1] deals with β-catenin and PKG levels in SW480 cells. Briefly: Western blot of β-catenin and PKG in SW480. It counts as cell-based, human. How it is done:
SW480 cells treated with exisulind as described previously are harvested from the microfuge tubes by rinsing once with ice-cold PBS. The cells are lysed by modified RIPA buffer for 15 minutes with agitation. The cell lysate is spun down in a cold room. The supernatants are transferred to fresh microcentrifuge tubes immediately after spinning. BioRad DC Protein Assay (Temecula, Calif.) is performed to determine the protein concentrations in samples. The samples are normalized for protein concentration, as described above.
50 μg of each sample is loaded to 10% SDS gel. SDS-PAGE is performed, and the proteins then are transferred to a nitrocellulose membrane. The blotted nitrocellulose membrane are blocked in freshly prepared TBST containing 5% nonfat dry milk for one hour at room temperature with constant agitation.
A goat-anti-PKG primary antibody is diluted to the recommended concentration/dilution in fresh TBST/5% nonfat dry milk. The nitrocellulose membrane is placed in the primary antibody solution and incubated one hour at room temperature with agitation. The nitrocellulose membrane is washed three times for ten minutes each with TBST. […]
This observation was made by culturing SW480 cells with either 200, 400 or 600 μM exisulind or vehicle (0.1% DMSO). […] Immuno-reactive protein can be detected by Western blot. […]

The test system of assay [2] is HT-29 colon adenocarcinoma cells. Briefly: Apoptosis by DNA fragmentation assay in HT-29. Further: key: −: Not active; +: Slightly active; ++: Moderately active; +++: Strongly active; ++++: Highly active. The class given is cell-based, human. Conditions: qualitative activity profile.
A further assay has as its system UACC375, Melanoma. Briefly: Growth inhibition, SRB assay, UACC375. It counts as cell-based. As to conditions: Homo sapiens, UACC-375. From the text:
(§2) A compound's ability to inhibit tumor cell growth can be measured using the HT-29 human colon carcinoma cell line obtained from ATCC. HT-29 cells have previously been characterized as a relevant colon tumor cell culture model (Fogh, J., and Trempe, G. In: Human Tumor Cells in Vitro, J. Fogh (eds.), Plenum Press, New York, pp. 115-159, 1975). HT-29 cells are maintained in RPMI media supplemented with 5% fetal bovine calf serum (Gemini Bioproducts, Inc., Carlsbad, Calif.) and 2 mm glutamine, and 1% antibiotic-antimycotic in a humidified atmosphere of 95% air and 5% CO2 at 37° C. Briefly, HT-29 cells are plated at a density of 500 cells/well in 96 well microtiter plates and incubated for 24 hours at 37° C. prior to the addition of compound. […] After six days in culture, the cells are fixed by the addition of cold trichloroacetic acid to a final concentration of 10% and protein levels are measured using the sulforhodamine B (SRB) colorimetric protein stain assay as previously described by Skehan, P., Storeng, R., Scudiero, D., Monks, A., McMahon, J., Vistica, D., Warren, J. T., Bokesch, H., Kenney, S., and Boyd, M. R., “New Colorimetric Assay For Anticancer-Drug Screening,” J. Natl. Cancer Inst. […]
(§3) To show the effectiveness of this screening method on various forms of neoplasia, compounds were tested on numerous cell lines. […] The IC50 values were determined by the SRB assay. […]

The next assay deals with HCT116, Colon. Briefly: Growth inhibition, SRB assay, HCT116. It counts as cell-based. As to conditions: Homo sapiens, HCT-116.
Excerpt: as §2, §3
(Sulforhodamine B stains cellular protein and so reports cell mass.)

A word on the GI50: it is the concentration that inhibits growth by half. The term IC50 denotes the concentration that inhibits the measured activity by half. Lower therefore signals greater potency. For the molecule `CC1=C(CC(=O)NCc2ccccc2)c2cc(F)ccc2/C1=C\c1ccncc1` [Compound I, (Z)-5-fluoro-2-methyl-(4-pyridylidene)-3-(N-benzyl)indenylacetamide hydrochloride], the GI50 in the assay with PC-3 (Homo sapiens, PC-3, 120 h) turned out to be 1.7 µM; in the assay with HCT-15 (Homo sapiens, HCT-15, 120 h) it was 1.7 µM; with PANC-1 it was 2.2 µM; in the assay on NCI-H82 (Homo sapiens, NCI-H82, 120 h), 1.7 µM; in the assay with HT-29 (Homo sapiens, HT-29, 120 h), 2.1 µM; in the assay with NCI-H460 (Homo sapiens, NCI-H460, 120 h), 1.9 µM. For the same molecule, the “GI90 μM, PC-3” value with PC-3 was 82.5 µM. In addition, the “GI90 μM, HCT-15” value with HCT-15 was determined as 3.0 µM. The molecule further registered a 50% inhibitory concentration (IC50) with SW-480 cell line of 0.7 µM. In addition, in the assay with NCI-H82, the “GI90 μM, NCI-H82” value is 5.8 µM. The “GI90 μM, HT-29” value in the assay with HT-29 was determined as 8.0 µM. Also, the “GI90 μM, NCI-H460” value in the assay on NCI-H460 is 30.0 µM.

On to `CC1=C(CC(=O)O)c2cc(F)ccc2/C1=C\c1ccc(S(C)(=O)=O)cc1` [Exisulind, 5-fluoro-2-methyl-1-(p-methylsulfonylbenzylidene)-3-indenylacetic acid], for which, in assay [1] (SW480, 200, 400 or 600 μM, 48 hours, Western blot), the “reduction of expression of β-catenin compared to control” value was 50%. The “PKG level by Western blot” value in [1] (SW480, 48 hours) was “increase of PKG”. The Apoptosis entry in assay [2] is “++”. The IC50 in the assay on UACC375, Melanoma was found to be 100 µM; in the assay on HCT116, Colon, 90 µM.
